Results: patent US12410136B2, “Pyridinyl morpholine compound, preparation method therefor, and application thereof” (SHANGHAI ZHONGZE THERAPEUTICS, CO. LTD., priority 2020, dated 2025)

Legend:
D2 receptor = D2 receptor (Homo sapiens, UniProt P14416); assay: Dopamine D2 receptor binding test
Method: Dopamine D2 Receptor Binding Test
In this experiment, HEK293 cells were transfected with plasmid vector containing D2 receptor protein gene, and calcium phosphate transfection method was used and after transfection, the cells were cultured in a culture solution containing G418, and the cell monoclonal and radioligand binding experiments were selected, and finally a stable cell line which could stably express D2 receptor protein was obtained.
HeK-293 cells were infected with recombinant viruses containing the above various genes respectively, and after 48-72 hours, the receptor proteins were expressed in large quantities on the membrane, and the cells were centrifuged at 1000 rpm for 5 min and then the culture solution was discarded, and the cells were collected, and stored in a −20° C. refrigerator for later use. Tris-HCl reaction buffer (pH=7.5) was used to resuspend in the experiment.
On the Millipore cell sample collector, the mixture was quickly filtrated under reduced pressure through GF/C glass fiber filter paper, and eluted with 3 mL of eluent (50 mMTris-HCl, pH 7.5) for 3 times, then dried under microwave for 5 to 6 min. The filter paper was moved into a 0.5 mL centrifuge tube, and 500 μL of lipid-soluble scintillation solution was added. The mixture was kept in the dark for more than 30 min, and the radioactivity intensity was determined by counting. […] Two replicate tubes were made for each experiment of compound, and two separate experiments were performed.
Two tubes were tested for each concentration and two independent tests were performed for each compound.

H1 receptor = target: T1, H1 receptor (Homo sapiens, UniProt P35367); assay: H1 receptor binding test; conditions: 1 nM [3H]pyrilamine, HEK-293 cell membrane homogenate; read-out: Affinity of the compound for H1 receptor (Ki value, nM) H1
T1 construct: expressed in transfected cells; host or cells: HEK-293
Method: Non-specific binding was determined in the presence of 1 μM pyrilamine.

[1] = target: T2, human recombinant D3 receptor (Homo sapiens, UniProt P35462); assay: Dopamine D3 receptor binding test; conditions: [3H]methyl-spiperone 0.3 nM, human recombinant D3 receptor expressed in CHO cells; read-out: Affinity of the compound for each receptor (Ki value, nM) D3
T2 construct: expressed in transfected cells; host or cells: CHO
Method: Dopamine D3 Receptor Binding Test
[^3H]methyl-spiperone (0.3 nM) was used as the ligand, and (+)-butaclamol (10 μM) was used to determine the non-specific binding, and the binding assay was performed on human recombinant D3 receptor (expressed in CHO cells).

5-HT2A receptor = target: T3, 5-HT2A receptor (Homo sapiens, UniProt P28223); assay: 5-HT2A receptor binding test; conditions: [3H]-Ketanserin, 5-HT2A receptor expressed in HEK293 cells; read-out: Affinity of the compound for each receptor (Ki value, nM) 5-HT2A
T3 construct: expressed in transfected cells; host or cells: HEK293
Source text: 5-HT2A Receptor Binding Test
Beckman LS-6500 multifunctional liquid scintillation counter.
Tris-HCl reaction buffer (pH 7.7) was used to resuspend in the experiment.

[2] = test system: mouse model of schizophrenia induced by MK-801; assay: MK-801 model experiment (open-field motion); conditions: for Improvement rate on open-field motion of mice compared with cariprazine: MK-801 model, oral; for ED50: Mus musculus, 1.5 h, read-out: Effect on the total distance of open-field motion in mouse model of schizophrenia induced by MK-801, ED50
Method: An acute mode of administration was used in the experiment. The experimental mice were randomly divided into groups and put into a spontaneous activity box to adapt for 5-10 minutes before the experiment. […] The data were expressed as mean±standard error (Mean±SEM), and were analyzed using GraphPad Prism software, and data analysis was performed using t-test, and a significant difference was considered to exist when P<0.05.

[3] = test system: mouse schizophrenic model induced by Apo.; assay: Apomorphine model experiment (stereotyped motion); assay type: in vivo, C57BL/6 mice; conditions: for ED50: Mus musculus, single oral administration, apomorphine 5 mg/kg i.p., mice, read-out: Inhibition of total stereotyped motion of mouse schizophrenic model induced by Apo., ED50
Method: 1. Apomorphine Model Experiment
1) 4 point, continuous biting;
2) 3 point, the cage lid was bit at least once during observation;
3) 2 point, the cage chassis or cage wall was licked at least once during observation;
4) 1 point, compulsive sniffing and bowing activities were appeared;
5) 0 point, no of the above activities.
The total score of the mice was calculated for the above behaviors within 70 min, and the improvement rate was calculated according to the following formula.
During the experiment, the clinical response symptoms of the animals were recorded.
All data were expressed as x±SEM, processed with the 11.5 software statistical package, and t-test and one-way analysis of variance were performed for the comparison of the means of the two samples, with P<0.05 as a significant difference.

D2 receptor, sequence (P14416 whole entry): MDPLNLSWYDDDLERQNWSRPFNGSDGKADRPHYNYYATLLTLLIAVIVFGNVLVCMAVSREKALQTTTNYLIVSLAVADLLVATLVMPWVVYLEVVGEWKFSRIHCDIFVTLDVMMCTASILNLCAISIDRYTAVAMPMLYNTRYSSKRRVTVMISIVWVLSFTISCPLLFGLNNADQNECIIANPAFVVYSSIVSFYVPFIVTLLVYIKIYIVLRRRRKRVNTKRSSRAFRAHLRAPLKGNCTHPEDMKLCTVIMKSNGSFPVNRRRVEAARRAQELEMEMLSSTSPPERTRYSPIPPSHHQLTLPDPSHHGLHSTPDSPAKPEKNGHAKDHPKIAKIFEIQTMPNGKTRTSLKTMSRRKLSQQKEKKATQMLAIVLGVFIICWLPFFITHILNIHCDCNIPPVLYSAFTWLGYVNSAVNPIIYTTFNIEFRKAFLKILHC
T2 sequence (P35462 whole entry): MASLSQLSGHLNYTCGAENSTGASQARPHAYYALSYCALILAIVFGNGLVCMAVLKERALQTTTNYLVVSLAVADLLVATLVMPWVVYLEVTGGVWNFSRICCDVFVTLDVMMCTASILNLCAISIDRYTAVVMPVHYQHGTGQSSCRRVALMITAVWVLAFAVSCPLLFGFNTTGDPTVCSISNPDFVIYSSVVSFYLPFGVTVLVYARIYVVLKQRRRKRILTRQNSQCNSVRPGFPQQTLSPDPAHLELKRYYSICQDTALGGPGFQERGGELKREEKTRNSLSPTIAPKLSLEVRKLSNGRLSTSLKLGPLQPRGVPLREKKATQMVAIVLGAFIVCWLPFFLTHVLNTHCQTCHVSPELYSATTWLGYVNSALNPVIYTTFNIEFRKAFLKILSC
T1 sequence (P35367 whole entry): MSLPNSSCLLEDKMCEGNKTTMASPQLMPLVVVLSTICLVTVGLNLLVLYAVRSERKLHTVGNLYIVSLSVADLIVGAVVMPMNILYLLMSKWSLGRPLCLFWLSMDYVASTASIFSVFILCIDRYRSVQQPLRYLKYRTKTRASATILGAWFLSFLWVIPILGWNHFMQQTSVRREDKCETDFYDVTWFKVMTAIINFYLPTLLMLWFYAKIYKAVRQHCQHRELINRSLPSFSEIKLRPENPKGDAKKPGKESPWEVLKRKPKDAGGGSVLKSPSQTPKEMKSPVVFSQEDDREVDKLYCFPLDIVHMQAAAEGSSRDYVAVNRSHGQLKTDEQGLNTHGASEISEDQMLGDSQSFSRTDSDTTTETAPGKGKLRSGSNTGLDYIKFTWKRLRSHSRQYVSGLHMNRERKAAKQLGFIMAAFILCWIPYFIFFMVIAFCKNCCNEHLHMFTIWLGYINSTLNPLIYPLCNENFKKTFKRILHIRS
T3 sequence (P28223 whole entry): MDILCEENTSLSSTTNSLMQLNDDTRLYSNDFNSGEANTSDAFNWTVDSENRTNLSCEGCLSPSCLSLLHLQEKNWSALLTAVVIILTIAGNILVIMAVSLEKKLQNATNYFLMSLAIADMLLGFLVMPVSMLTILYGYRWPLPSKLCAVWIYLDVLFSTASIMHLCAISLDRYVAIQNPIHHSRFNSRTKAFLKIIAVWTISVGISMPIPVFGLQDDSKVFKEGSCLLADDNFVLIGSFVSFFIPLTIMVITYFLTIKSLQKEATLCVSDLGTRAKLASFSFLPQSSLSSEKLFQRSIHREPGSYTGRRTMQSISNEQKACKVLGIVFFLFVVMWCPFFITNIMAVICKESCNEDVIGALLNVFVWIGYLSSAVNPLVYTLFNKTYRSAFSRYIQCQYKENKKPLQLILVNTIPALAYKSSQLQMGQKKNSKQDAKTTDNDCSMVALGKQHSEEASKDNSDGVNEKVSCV

Row | Structure (SMILES) | Ki (D2 receptor) [nM] | Ki (H1 receptor) [nM] | Ki [1] [nM] | Ki (5-HT2A receptor) [nM] | Improvement rate on open-field motion of mice compared with cariprazine [2] | ED50 [2] [mg/kg] | ED50 [3] [mg/kg] | Effect (ED50) on the stereotyped behavior of mice compared with cariprazine ([3]; apomorphine model, oral)
1 | CCCN(C)C(=O)N[C@H]1CC[C@H](CCN2CCN(c3cc(-c4ccc(F)cc4)cc(N4CCOCC4)n3)CC2)CC1 [II-6, 3-(trans-4-(2-(4-(4-(4-fluorophenyl)-6-morpholinopyridin-2-yl)piperazin-1-yl)ethyl)cyclohexyl)-1-methyl-1-propylurea] | 1 | > 1000 | 0.04 | 1.3 | better | 0.1 | 0.13 | better effects
2 | CN(C)C(=O)N[C@H]1CC[C@H](CCN2CCN(c3cc(-c4ccccc4)cc(N4CCOCC4)n3)CC2)CC1 [Compound I-7, 1,1-dimethyl-3-(trans-4-(2-(4-(6-morpholino-4-phenylpyridin-2-yl)piperazin-1-yl)ethyl)cyclohexyl)urea] | 0.12 | 420 | 0.01 | 0.2 | – | – | – | –
3 | O=C(N[C@H]1CC[C@H](CCN2CCN(c3cc(-c4cccs4)cc(N4CCOCC4)n3)CC2)CC1)c1cccnc1 [VI-3, N-(trans-4-(2-(4-(6-morpholino-4-(thiophen-2-yl)pyridin-2-yl)piperazin-1-yl)ethyl)cyclohexyl)nicotinamide] | 1.9 | 740 | 0.8 | 1.7 | – | – | – | –
4 | CC(=O)N[C@H]1CC[C@H](CCN2CCN(c3cc(-c4cccs4)cc(N4CCOCC4)n3)CC2)CC1 [VI-1, N-(trans-4-(2-(4-(6-morpholino-4-(thiophen-2-yl)pyridin-2-yl)piperazin-1-yl)ethyl)cyclohexyl)acetamide] | 0.8 | > 1000 | 0.05 | 1.6 | better | 0.12 | 0.55 | –
5 | CN(C)C(=O)N[C@H]1CC[C@H](CCN2CCN(c3cc(-c4cccnc4)cc(N4CCOCC4)n3)CC2)CC1 [IV-3] | 2 | 790 | 0.1 | 3.6 | – | – | – | –

More lines, main results first:

Row | Ki (D2 receptor) [nM] | Ki (H1 receptor) [nM] | Ki [1] [nM] | Ki (5-HT2A receptor) [nM] | Structure (SMILES) | Improvement rate on open-field motion of mice compared with cariprazine [2] | ED50 [2] [mg/kg] | ED50 [3] [mg/kg] | Effect (ED50) on the stereotyped behavior of mice compared with cariprazine ([3]; apomorphine model, oral)
6 | 8.6 | > 1000 | 0.9 | 1.1 | O=C(N[C@H]1CC[C@H](CCN2CCN(c3cc(-c4ccccc4)cc(N4CCOCC4)n3)CC2)CC1)C1CCCCC1 [Compound I-5] | – | – | – | –
7 | 4.6 | > 1000 | 0.5 | 12.5 | COc1ccc(-c2cc(N3CCOCC3)nc(N3CCN(CC[C@H]4CC[C@H](NC(=O)N5CCCCC5)CC4)CC3)c2)cc1 [III-3, N-(trans-4-(2-(4-(4-(4-methoxyphenyl)-6-morpholinopyridin-2-yl)piperazin-1-yl)ethyl)cyclohexyl)piperidine-1-carboxamide] | – | – | – | –
8 | 10.6 | > 1000 | 0.3 | 2.8 | O=C(N[C@H]1CC[C@H](CCN2CCN(c3cc(-c4ccco4)cc(N4CCOCC4)n3)CC2)CC1)N1CCCCC1 [Compound V-4, N-(trans-4-(2-(4-(4-(furan-2-yl)-6-morpholinopyridin-2-yl)piperazin-1-yl)ethyl)cyclohexyl)piperidine-1-carboxamide] | – | – | – | –
9 | 3.1 | 760 | 0.2 | 1.7 | CC(=O)N[C@H]1CC[C@H](CCN2CCN(c3cc(-c4ccccc4)cc(N4CCOCC4)n3)CC2)CC1 [Compound I-1, N-(trans-4-(2-(4-(6-morpholino-4-phenylpyridin-2-yl)piperazin-1-yl)ethyl)cyclohexyl)acetamide] | – | – | – | –
